Experimental data published in PubChem BioAssay AID206 (DTP/NCI, 2004).
Where “and” joins values, the source holds several entries; their conditions need not be identical. Equal entries are not always repeated. Results filed as inconclusive are left out.

Test system: nude mice, HT29 intrarenal xenograft, tumor weight T/C
Test: NCI In Vivo Anticancer Drug Screen. Data for tumor model HT29;CX-1 Human Adenocarcinoma (MER+) (intrarenal inoculation) in NU/NU Swiss (nude) mice
Conditions: endpoint: mean tumor weight change, higher = larger tumour
In short: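 Compounds were given to mice carrying transplantable tumors; a vehicle-dosed group served as control. The endpoint measured in each group was compared as a T/C quotient.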

[1] = dose: 300.0 mg/kg/injection, schedule: Q04DX004 (sc), vehicle: saline with Tween-80
[2] = dose: 600.0 mg/kg/injection, schedule: Q04DX004 (sc), vehicle: saline with Tween-80
[3] = dose: 300.0 mg/kg/injection, schedule: Q04DX004 (sc), vehicle: saline
[4] = dose: 600.0 mg/kg/injection, schedule: Q04DX004 (sc), vehicle: saline
[5] = dose: 1200.0 mg/kg/injection, schedule: Q04DX004 (sc), vehicle: saline
[6] = dose: 2400.0 mg/kg/injection, schedule: Q04DX004 (sc), vehicle: saline
[7] = dose: 200.0 mg/kg/injection, schedule: Q04DX004 (sc), vehicle: saline with Tween-80
[8] = dose: 400.0 mg/kg/injection, schedule: Q04DX004 (sc), vehicle: saline with Tween-80
[9] = dose: 50.0 mg/kg/injection, schedule: Q01DX010 (sc), vehicle: saline
[10] = dose: 100.0 mg/kg/injection, schedule: Q01DX010 (sc), vehicle: saline
[11] = dose: 50.0 mg/kg/injection, schedule: Q04DX004 (sc), vehicle: Klucel (hydroxypropylcellulose) (HPC)
[12] = dose: 800.0 mg/kg/injection, schedule: Q04DX004 (sc), vehicle: saline with Tween-80
[13] = dose: 1600.0 mg/kg/injection, schedule: Q04DX004 (sc), vehicle: saline with Tween-80

## O=C(C/C(=N\C(=S)Nc1cc(C(F)(F)F)ccc1Cl)NO)N1CCCC1
dose: 75.0 mg/kg/injection, schedule: Q04DX004 (sc), vehicle: saline with Tween-80
  T/C: 51 % of control
dose: 150.0 mg/kg/injection, schedule: Q04DX004 (sc), vehicle: saline with Tween-80
  T/C: 49 % of control
[1]
  T/C: 80 % of control
[2]
  T/C: 70 % of control

## O=C1c2ccccc2C(=O)c2c(NCCNCCO)ccc(O)c21
dose: 25.0 mg/kg/injection, schedule: Q04DX004 (sc), vehicle: suspension in saline
  T/C: 74 % of control
dose: 50.0 mg/kg/injection, schedule: Q04DX004 (sc), vehicle: suspension in saline
  T/C: 73 % of control
dose: 100.0 mg/kg/injection, schedule: Q04DX004 (sc), vehicle: suspension in saline
  T/C: 111 % of control

## C=CC(=O)N1CN(C(=O)C=C)CN(C(=O)C=C)C1
dose: 6.25 mg/kg/injection, schedule: Q01DX010 (sc), vehicle: saline with Tween-80
  T/C: 183 % of control
dose: 12.5 mg/kg/injection, schedule: Q01DX010 (sc), vehicle: saline with Tween-80
  T/C: 45 % of control

## COc1cccc2c1C(=O)c1c(O)c3c(c(O)c1C2=O)C[C@@](O)(C(=O)CO)C[C@@H]3OC1CC(OC(C)=O)C(OC(C)=O)C(C)O1 (some centres not stated)
dose: 25.0 mg/kg/injection, schedule: Q01DX010 (sc), vehicle: distilled water + Tween-80
  T/C: 35 % of control

## C[CH2][Pb]([CH2]C)([CH2]C)[O]C(=O)COc1ccccc1
dose: 4.5 mg/kg/injection, schedule: Q04DX004 (sc), vehicle: saline with Tween-80
  T/C: 100 % of control
dose: 9.0 mg/kg/injection, schedule: Q04DX004 (sc), vehicle: saline with Tween-80
  T/C: 114 % of control
dose: 18.0 mg/kg/injection, schedule: Q04DX004 (sc), vehicle: saline with Tween-80
  T/C: 65 % of control

## CCCCCC[C@@H](O)C/C=C\CCCCCCCC(=O)OCCO
[3]
  T/C: 21 % of control
[4]
  T/C: 155 % of control
[5]
  T/C: 169 % of control
[6]
  T/C: 230 % of control

## CC1(c2ccc(Cl)cc2)OC(=O)C(=Cc2ccc([N+](=O)[O-])s2)C(=O)O1 (configuration not stated)
dose: 50.0 mg/kg/injection, schedule: Q04DX004 (sc), vehicle: saline with Tween-80
  T/C: 34 % of control
dose: 100.0 mg/kg/injection, schedule: Q04DX004 (sc), vehicle: saline with Tween-80
  T/C: 53 % of control
[7]
  T/C: 77 % of control
[8]
  T/C: 60 % of control

## CC[C@]1(O)C[C@H]2CN(CCc3c([nH]c4ccccc34)[C@@](C(=O)OC)(c3cc4c(cc3OC)N(C=O)[C@H]3[C@@](O)(C(=O)OC)[C@H](OC(C)=O)[C@]5(CC)C=CCN6CC[C@]43[C@@H]65)C2)C1
dose: 0.13 mg/kg/injection, schedule: Q01DX010 (sc), vehicle: saline
  T/C: 86 % of control
dose: 0.25 mg/kg/injection, schedule: Q01DX010 (sc), vehicle: saline
  T/C: 84 % of control

## COc1cccc2c1C(=N)c1c(O)c3c(c(O)c1C2=O)C[C@@](O)(C(C)=O)C[C@@H]3OC1CC(N)C(O)C(C)O1 (some centres not stated)
dose: 10.0 mg/kg/injection, schedule: Q04DX004 (sc), vehicle: water
  T/C: 102 % of control
dose: 40.0 mg/kg/injection, schedule: Q04DX004 (sc), vehicle: water
  T/C: 53 % of control

## CCCCCC[C@H]([C@H](C)O)n1cnc2c(N)ncnc21
[9]
  T/C: 26 % of control
[10]
  T/C: 61 % of control
dose: 200.0 mg/kg/injection, schedule: Q01DX010 (sc), vehicle: saline
  T/C: 56 % of control

## CCC(C)Nc1ccc(N)cc1 (configuration not stated)
dose: 2.25 mg/kg/injection, schedule: Q04DX004 (sc), vehicle: Klucel (hydroxypropylcellulose) (HPC)
  T/C: 64 % of control
dose: 4.5 mg/kg/injection, schedule: Q04DX004 (sc), vehicle: Klucel (hydroxypropylcellulose) (HPC)
  T/C: 64 % of control
dose: 9.0 mg/kg/injection, schedule: Q04DX004 (sc), vehicle: Klucel (hydroxypropylcellulose) (HPC)
  T/C: 101 % of control

## COc1ccc(/C=C/C(=O)c2cc(C(=O)O)c(OC)cc2OC)cc1OC
dose: 225.0 mg/kg/injection, schedule: Q04DX004 (sc), vehicle: suspension in saline
  T/C: 82 % of control
dose: 450.0 mg/kg/injection, schedule: Q04DX004 (sc), vehicle: suspension in saline
  T/C: 102 % of control
dose: 900.0 mg/kg/injection, schedule: Q04DX004 (sc), vehicle: suspension in saline
  T/C: 88 % of control

## O=C(C#Cc1ccccc1)c1ccccc1
dose: 12.5 mg/kg/injection, schedule: Q04DX004 (sc), vehicle: Klucel (hydroxypropylcellulose) (HPC)
  T/C: 71 % of control
dose: 25.0 mg/kg/injection, schedule: Q04DX004 (sc), vehicle: Klucel (hydroxypropylcellulose) (HPC)
  T/C: 64 % of control
[11]
  T/C: 88 % of control
dose: 100.0 mg/kg/injection, schedule: Q04DX004 (sc), vehicle: Klucel (hydroxypropylcellulose) (HPC)
  T/C: 76 % of control

## C=C1C(=O)O[C@@H]2[C@H](O)[C@@H](C)[C@@H]3C=CC(=O)[C@@]3(C)[C@H](OC(=O)C=C(C)C)[C@H]12
dose: 9.38 mg/kg/injection, schedule: Q04DX004 (sc), vehicle: saline with Tween-80
  T/C: 93 % of control
dose: 18.75 mg/kg/injection, schedule: Q04DX004 (sc), vehicle: saline with Tween-80
  T/C: 121 % of control
dose: 37.5 mg/kg/injection, schedule: Q04DX004 (sc), vehicle: saline with Tween-80
  T/C: 87 % of control

## CCOC(=O)C(C)(C)Oc1ccc(Cl)cc1
[1]
  T/C: 72 % of control
[2]
  T/C: 70 % of control
dose: 1200.0 mg/kg/injection, schedule: Q04DX004 (sc), vehicle: saline with Tween-80
  T/C: 68 % of control

## O=C1NC(=O)/C(=C/C=C/c2ccccc2)S1
[7]
  T/C: 76 % of control
[8]
  T/C: 68 % of control
[12]
  T/C: 94 % of control
[13]
  T/C: 83 % of control

## O=c1oc2c(O)c(O)cc3c(=O)oc4c(O)c(O)cc1c4c23
dose: 150.0 mg/kg/injection, schedule: Q04DX004 (sc), vehicle: Klucel (hydroxypropylcellulose) (HPC)
  T/C: 93 % of control
dose: 600.0 mg/kg/injection, schedule: Q04DX004 (sc), vehicle: Klucel (hydroxypropylcellulose) (HPC)
  T/C: 161 % of control
dose: 1200.0 mg/kg/injection, schedule: Q04DX004 (sc), vehicle: Klucel (hydroxypropylcellulose) (HPC)
  T/C: 201 % of control

## COC(=O)c1ccoc1
dose: 150.0 mg/kg/injection, schedule: Q04DX004 (sc), vehicle: saline
  T/C: 116 % of control

## CN(C)N=Nc1cccc(C(N)=O)c1
[11]
  T/C: 92 % of control and 116 % of control

## C[C@]12CC[C@@H]3c4ccc(OC(=O)Cc5ccc(N(CCCl)CCCl)cc5)cc4CC[C@H]3[C@@H]1CC[C@@H]2OC(=O)Cc1ccc(N(CCCl)CCCl)cc1
[7]
  T/C: 106 % of control
[8]
  T/C: 70 % of control
[12]
  T/C: 113 % of control
[13]
  T/C: 111 % of control

## CC(C)=CC(=O)OC1C2C(C)=CC(=O)C(O)C2(C)C2C3(O)OCC24C(CC(=O)OC14)C(C)C3O (configuration not stated)
dose: 1.25 mg/kg/injection, schedule: Q04DX004 (sc), vehicle: distilled water + Tween-80
  T/C: 67 % of control and 76 % of control
dose: 1.25 mg/kg/injection, schedule: Q04DX004 (sc), vehicle: saline with Tween-80
  T/C: 70 % of control
dose: 5.0 mg/kg/injection, schedule: Q04DX004 (sc), vehicle: saline with Tween-80
  T/C: 44 % of control

## c1cc[c]([Sn][c]2ccccc2)cc1
dose: 80.0 mg/kg/injection, schedule: Q01DX010 (sc), vehicle: saline
  T/C: 88 % of control
dose: 160.0 mg/kg/injection, schedule: Q01DX010 (sc), vehicle: saline
  T/C: 113 % of control
dose: 320.0 mg/kg/injection, schedule: Q01DX010 (sc), vehicle: saline
  T/C: 122 % of control

## Cc1cc(NCCN(C(C)C)C(C)C)nc(/N=C(\N)Nc2ccc(Cl)c(C(F)(F)F)c2)n1
dose: 20.0 mg/kg/injection, schedule: Q04DX004 (sc), vehicle: Klucel (hydroxypropylcellulose) (HPC)
  T/C: 62 % of control
dose: 40.0 mg/kg/injection, schedule: Q04DX004 (sc), vehicle: Klucel (hydroxypropylcellulose) (HPC)
  T/C: 51 % of control
dose: 80.0 mg/kg/injection, schedule: Q04DX004 (sc), vehicle: Klucel (hydroxypropylcellulose) (HPC)
  T/C: 78 % of control
dose: 160.0 mg/kg/injection, schedule: Q04DX004 (sc), vehicle: Klucel (hydroxypropylcellulose) (HPC)
  T/C: 62 % of control

## OCC1OC(n2cnc3c(=S)nc[nH]c32)C(O)C1O (configuration not stated)
dose: 25.0 mg/kg/injection, schedule: Q01DX010 (sc), vehicle: saline
  T/C: 54 % of control
[9]
  T/C: 77 % of control
[10]
  T/C: 108 % of control

## Cn1cnc([N+](=O)[O-])c1SCC(=O)O
[3]
  T/C: 89 % of control
[4]
  T/C: 83 % of control
[5]
  T/C: 66 % of control
[6]
  T/C: 77 % of control

## NC(=O)CC(N)C(=O)O (configuration not stated)
dose: 400.0 mg/kg/injection, schedule: Q04DX004 (sc), vehicle: saline
  T/C: 151 % of control
dose: 800.0 mg/kg/injection, schedule: Q04DX004 (sc), vehicle: saline
  T/C: 119 % of control
dose: 3200.0 mg/kg/injection, schedule: Q04DX004 (sc), vehicle: saline
  T/C: 90 % of control
